For 24 compounds, IC50 results are on record in patent publication US20140113898A1, “BISARYLSULFONE AND DIALKYLARYLSULFONE COMPOUNDS AS CALCIUM CHANNEL BLOCKERS” (Zalicus Pharmaceuticals Ltd., priority 2010, published 2014).

Like-named read-outs stand apart in the source and are kept apart here.

One test deals with T1, CaV2.2 (Homo sapiens, UniProt Q00975).
T1 construct: expressed in transfected cells; host or cells: unnamed doxycycline-inducible cell line
As to the kind of experiment: High-throughput CaV2.2/Kir2.3 FLIPR fluorescent assay. Format: cell-based. To be noted: Fluo-4 FLIPR, closed or inactivated state not stated. Put shortly: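 Doxycycline-induced cells moved to 29 °C on assay day and were loaded with 4.4 μM Fluo-4. They were held in 2 mM KCl (closed state) or 12.5 mM KCl (inactivated state) buffer, pH 7.4, then depolarized with 130 mM KCl. Fluorescence was read 3 min on FLIPR, and IC50 was obtained from logistic fits.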

The next test addresses T2, CaV3.2 (Homo sapiens, UniProt O95180).
T2 construct: expressed in transfected cells; host or cells: unnamed doxycycline-inducible cell line
The test is described as follows: High-throughput CaV3.2/Kir2.3 T-type FLIPR fluorescent assay. The settings on record: Fluo-4 FLIPR, closed or inactivated state not stated. The format is cell-based. Here is the method: Cells were plated in 384-well, clear-bottom, black-walled, poly-D-lysine coated plates (Becton Dickinson, Franklin Lake, N.J.) 2 days prior to use in the FLIPR assay. 100 µL of cells (1.2×10^6 cell/mL) containing doxycyline (Sigma-Aldrich, 1.5 μg/mL; to induce channel expression) were added to each well using a Multidrop (Thermo Scientific, Waltham, Mass.) and were maintained in 5% CO2 incubator at 37° C. On the morning of the assay, cells were transferred to a 5% CO2 incubator at 29° C.
Cells were washed with a wash buffer containing (in mM): 118 NaCl, 18.4 HEPES, 11.7 D-glucose, 2 CaCl2, 0.5 MgSO4, 4.7 KCl, and 1.2 KH2PO4, with the pH adjusted to 7.2 with
NaOH. 4.4 μM of the fluorescent indicator dye Fluo-4 (Invitrogen) prepared in pluronic acid (Sigma-Aldrich) was loaded into the wells and incubated for 45 minutes at 29° C. in 5% CO2. Cells were then rinsed with either a 2 mM KCl closed-state buffer (in mM: 138.5 NaCl, 10 HEPES, 10 D-glucose, 1 CaCl2, and 2 KCl, with the pH adjusted to 7.4 with NaOH) when performing the closed-state assay or 7.6 mM KCl inactivated-state buffer (in mM: 130.9 NaCl, 10 HEPES, 10 D-glucose, 1 CaCl2, and 7.6 mM KCl, with the pH adjusted to 7.4 with NaOH) when performing the inactivated-state assay. Concentration-dependent response curves were generated from 5 mM stock solutions prepared in DMSO (Sigma-Aldrich), diluted in either the 2 mM KCl buffer or 7.6 mM KCl buffer, and incubated for 20 minutes at 29° C. in 5% CO2. Calcium entry was evoked with an addition of either 12 mM KCl stimulation buffer (in mM: 128.5 NaCl, 10 HEPES, 10 D-glucose, 1 CaCl2, and 12 KCl, with the pH adjusted to 7.4 with NaOH) or 14.5 mM KCl stimulation buffer (in mM: 126 NaCl, 10 HEPES, 10 D-glucose, 1 CaCl2, and 14.5 KCl, with the pH adjusted to 7.4 with NaOH) for the closed-state or inactivated-state assay respectively. A change in the Fluo-4 fluorescence signal was assessed using FLIPR^TETRA™ instrument (Molecular Devices, Sunnyvale, Calif.) for 3 minutes following the elevation of extracellular KCl using an illumination wavelength of 470-495 nm with emissions recorded at 515-575 nm.
Concentration-dependent response curves were obtained by comparing the fluorescence signal in the presence of compound and fitted with a logistic function (1) to obtain the concentration that inhibited 50% (IC50) of the RLU signal using OriginPro v.7.5 software (OriginLab, Northampton, Mass.).
To assess the quality of the FLIPR assays the Z-factor (2) was used to quantify the suitability of the assay conditions using the following equation: […]
Data are expressed as mean and standard deviation (SD).

Where [1] appears, read: Table 4, read-out: FLIPR data CaV2.2.
[2] abbreviates: Table 5, read-out: FLIPR data CaV2.2.

T2 sequence (O95180 whole entry): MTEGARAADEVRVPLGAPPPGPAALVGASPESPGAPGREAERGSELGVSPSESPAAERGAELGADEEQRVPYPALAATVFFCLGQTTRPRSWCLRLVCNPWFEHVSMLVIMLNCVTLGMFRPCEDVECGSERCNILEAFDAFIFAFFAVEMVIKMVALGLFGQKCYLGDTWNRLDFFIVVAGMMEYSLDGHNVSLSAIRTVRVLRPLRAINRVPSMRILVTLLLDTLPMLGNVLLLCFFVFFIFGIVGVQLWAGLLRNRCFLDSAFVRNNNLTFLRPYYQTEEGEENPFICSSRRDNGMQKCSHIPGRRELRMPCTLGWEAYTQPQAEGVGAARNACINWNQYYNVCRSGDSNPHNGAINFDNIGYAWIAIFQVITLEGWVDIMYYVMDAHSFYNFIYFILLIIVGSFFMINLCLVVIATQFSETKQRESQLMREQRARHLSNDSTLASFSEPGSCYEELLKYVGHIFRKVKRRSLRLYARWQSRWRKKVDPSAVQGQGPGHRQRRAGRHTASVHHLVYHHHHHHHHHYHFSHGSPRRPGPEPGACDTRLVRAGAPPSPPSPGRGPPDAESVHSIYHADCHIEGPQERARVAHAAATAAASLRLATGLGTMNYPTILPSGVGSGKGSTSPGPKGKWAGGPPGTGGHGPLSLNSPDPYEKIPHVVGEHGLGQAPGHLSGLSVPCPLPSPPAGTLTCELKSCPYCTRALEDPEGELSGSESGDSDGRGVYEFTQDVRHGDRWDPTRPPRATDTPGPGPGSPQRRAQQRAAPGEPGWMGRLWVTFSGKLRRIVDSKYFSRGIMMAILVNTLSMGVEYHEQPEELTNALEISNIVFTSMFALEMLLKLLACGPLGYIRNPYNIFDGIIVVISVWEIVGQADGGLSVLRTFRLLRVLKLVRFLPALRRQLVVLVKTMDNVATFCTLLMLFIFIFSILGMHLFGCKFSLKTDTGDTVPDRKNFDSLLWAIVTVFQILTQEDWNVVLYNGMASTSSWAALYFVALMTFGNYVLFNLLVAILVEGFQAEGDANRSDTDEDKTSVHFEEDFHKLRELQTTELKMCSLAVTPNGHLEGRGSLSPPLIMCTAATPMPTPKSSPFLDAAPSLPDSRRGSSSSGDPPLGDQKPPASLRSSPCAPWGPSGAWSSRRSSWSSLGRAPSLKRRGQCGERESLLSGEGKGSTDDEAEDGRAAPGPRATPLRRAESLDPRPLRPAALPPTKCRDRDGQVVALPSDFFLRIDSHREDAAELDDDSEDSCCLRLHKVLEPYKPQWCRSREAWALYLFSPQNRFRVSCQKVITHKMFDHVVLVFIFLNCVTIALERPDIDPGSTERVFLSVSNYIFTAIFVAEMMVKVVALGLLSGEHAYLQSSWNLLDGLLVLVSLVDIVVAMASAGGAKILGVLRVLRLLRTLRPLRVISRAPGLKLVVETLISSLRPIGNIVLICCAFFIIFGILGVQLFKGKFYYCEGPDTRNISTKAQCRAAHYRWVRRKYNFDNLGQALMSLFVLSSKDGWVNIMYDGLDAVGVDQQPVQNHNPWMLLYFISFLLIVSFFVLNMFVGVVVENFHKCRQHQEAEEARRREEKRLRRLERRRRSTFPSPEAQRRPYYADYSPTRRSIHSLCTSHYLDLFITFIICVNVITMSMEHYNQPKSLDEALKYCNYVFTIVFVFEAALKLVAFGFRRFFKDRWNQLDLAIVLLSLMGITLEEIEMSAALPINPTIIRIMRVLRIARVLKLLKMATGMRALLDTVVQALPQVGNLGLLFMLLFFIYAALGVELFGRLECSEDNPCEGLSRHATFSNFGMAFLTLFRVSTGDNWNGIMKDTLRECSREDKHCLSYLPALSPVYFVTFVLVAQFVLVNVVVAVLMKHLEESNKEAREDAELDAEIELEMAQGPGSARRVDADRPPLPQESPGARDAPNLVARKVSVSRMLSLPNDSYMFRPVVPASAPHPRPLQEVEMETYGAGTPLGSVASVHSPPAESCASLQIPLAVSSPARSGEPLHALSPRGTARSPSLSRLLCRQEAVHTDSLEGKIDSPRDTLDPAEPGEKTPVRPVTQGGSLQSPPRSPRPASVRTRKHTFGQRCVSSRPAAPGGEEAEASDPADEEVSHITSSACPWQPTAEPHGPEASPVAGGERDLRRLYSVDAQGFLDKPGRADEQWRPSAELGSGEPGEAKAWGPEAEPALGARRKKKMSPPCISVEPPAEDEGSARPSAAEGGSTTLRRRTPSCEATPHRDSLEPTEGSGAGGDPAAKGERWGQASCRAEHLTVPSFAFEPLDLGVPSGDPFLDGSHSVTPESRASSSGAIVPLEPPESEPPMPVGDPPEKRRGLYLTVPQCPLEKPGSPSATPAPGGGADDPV

As for `NC1(C(=O)NCc2ccc(S(=O)(=O)c3cccc(C(F)(F)F)c3)cc2)CCC2(CC1)OCCO2` [Compound 83, 8-amino-N-(4-((3-(trifluoromethyl)phenyl)sulfonyl)benzyl)-1,4-dioxaspiro[4.5]decane-8-carboxamide], the IC50 was 1310 nM on CaV2.2 (setting [1]) and 9.22 µM at CaV3.2 (Table 4).
`COc1ccc(C(=O)NCC(C)(C)S(=O)(=O)c2cccc(C(F)(F)F)c2)cc1Cl` [Compound 160, 3-chloro-4-methoxy-N-(2-methyl-2-((3-(trifluoromethyl)phenyl)sulfonyl)propyl)benzamide]: the figures for the IC50 on CaV2.2 (setting [2]) and against CaV3.2 (Table 5) were 1020 nM and 3.99 µM, respectively.
The like results for `CC(C)(C(=O)NCc1cccnc1Oc1ccc(F)cc1)S(=O)(=O)c1cccc(C(F)(F)F)c1` [Compound 146, N-((2-(4-fluorophenoxy)pyridin-3-yl)methyl)-2-methyl-2-((3-(trifluoromethyl)phenyl)sulfonyl)propanamide] were, in that order, 440 nM and 7.21 µM.
Consider `O=C(NCc1ccc(S(=O)(=O)c2cccc(C(F)(F)F)c2)cn1)c1cnc(C(F)(F)F)nc1` [Compound 97, 2-(trifluoromethyl)-N-((5-((3-(trifluoromethyl)phenyl)sulfonyl)pyridin-2-yl)methyl)pyrimidine-5-carboxamide], for which the IC50 at CaV2.2 (setting [1]) came to 1930 nM; against CaV3.2 (Table 4), 4.17 µM.
With `COc1cc(C)ccc1C(=O)NCC(C)(C)S(=O)(=O)c1cccc(C(F)(F)F)c1` [Compound 170, 2-methoxy-4-methyl-N-(2-methyl-2-((3-(trifluoromethyl)phenyl)sulfonyl)propyl)benzamide], the figures for the IC50 on CaV2.2 (setting [2]) and against CaV3.2 (Table 5) were 1860 nM and 7.21 µM, respectively.
With `O=C(NCc1ccccc1S(=O)(=O)c1cccc(C(F)(F)F)c1)c1cn2cc(C(F)(F)F)ccc2n1` [Compound 51, 6-(trifluoromethyl)-N-(2-((3-(trifluoromethyl)phenyl)sulfonyl)benzyl)imidazo[1,2-a]pyridine-2-carboxamide], the IC50 worked out at 1230 nM on CaV2.2 (setting [1]) and 1.05 µM at CaV3.2 (Table 4).
On the same counts, the results for `O=C1c2ccc(C(F)(F)F)nc2CN1Cc1ccccc1S(=O)(=O)c1cccc(C(F)(F)F)c1` [Compound 58, 2-(trifluoromethyl)-6-(2-((3-(trifluoromethyl)phenyl)sulfonyl)benzyl)-6,7-dihydro-5H-pyrrolo[3,4-b]pyridin-5-one] are 2680 nM and 1.48 µM.
In the case of `CC(C)(CNC(=O)c1ccc(Cl)cc1)S(=O)(=O)c1cccc(C(F)(F)F)c1` [Compound 165, 4-chloro-N-(2-methyl-2-((3-(trifluoromethyl)phenyl)sulfonyl)propyl)benzamide], the IC50 came out at 1530 nM at CaV2.2 (setting [2]) and 6.5 µM against CaV3.2 (Table 5).
Turning to `CC(C)Oc1cccnc1C(C)(C)NC(=O)C(C)(C)S(=O)(=O)c1cccc(C(F)(F)F)c1` [Compound 147, N-(2-(3-isopropoxypyridin-2-yl)propan-2-yl)-2-methyl-2-((3-(trifluoromethyl)phenyl)sulfonyl)propanamide], the IC50 at CaV2.2 (setting [2]) is 1390 nM; against CaV3.2 (Table 5), 3.53 µM.
In the case of `CC(C)(CCNC(=O)C1(N)CCS(=O)(=O)CC1)S(=O)(=O)c1cccc(C(F)(F)F)c1` [Compound 198, 4-amino-N-(3-methyl-3-((3-(trifluoromethyl)phenyl)sulfonyl)butyl)tetrahydro-2H-thiopyran-4-carboxamide 1,1-dioxide], the IC50 at CaV2.2 (setting [2]) was 9130 nM.
Still for that read-out and setting: with `CC(C)(CCNC(=O)[C@H]1CCCC[C@@H]1N)S(=O)(=O)c1cccc(C(F)(F)F)c1` [Compound 208, (1S,2S)-2-amino-N-(3-methyl-3-((3-(trifluoromethyl)phenyl)sulfonyl)butyl)cyclohexanecarboxamide] the figure was 1750 nM; with `CC(C)(CCNC(=O)c1cn2cc(C(F)(F)F)ccc2n1)S(=O)(=O)c1cc(F)cc(C(F)(F)F)c1` [Compound 214, N-(3-((3-fluoro-5-(trifluoromethyl)phenyl)sulfonyl)-3-methylbutyl)-6-(trifluoromethyl)imidazo[1,2-a]pyridine-2-carboxamide], 1310 nM.
With `CCOc1ncccc1C(=O)NCC(C)(C)S(=O)(=O)c1cccc(C(F)(F)F)c1` [Compound 162, 2-ethoxy-N-(2-methyl-2-((3-(trifluoromethyl)phenyl)sulfonyl)propyl)nicotinamide], the IC50 on CaV2.2 (setting [2]) was 2630 nM.
Still for that read-out and setting: as for `Cc1c(C(=O)NCCC(C)(C)S(=O)(=O)c2cccc(C(F)(F)F)c2)ncn(C(C)C)c1=O` [Compound 215, 1-isopropyl-5-methyl-N-(3-methyl-3-((3-(trifluoromethyl)phenyl)sulfonyl)butyl)-6-oxo-1,6-dihydropyrimidine-4-carboxamide], the figure is 3160 nM.
Consider `O=C(NCc1ccc(S(=O)(=O)c2cccc(C(F)(F)F)c2)cc1)[C@@H]1CCCN1` [Compound 73, (S)-N-(4-((3-(trifluoromethyl)phenyl)sulfonyl)benzyl)pyrrolidine-2-carboxamide], for which the IC50 on CaV2.2 (setting [1]) was determined as 1920 nM.
With `CC(C)(C)C(=O)Nc1ncccc1C(=O)NCC(C)(C)S(=O)(=O)c1cccc(C(F)(F)F)c1` [Compound 163, N-(2-methyl-2-((3-(trifluoromethyl)phenyl)sulfonyl)propyl)-2-pivalamidonicotinamide], the IC50 at CaV2.2 (setting [2]) is 2250 nM.
The same measure, in the same setting: as for `COc1cc(OC)cc(C(O)CNC(=O)C(C)(C)S(=O)(=O)c2cccc(C(F)(F)F)c2)c1` (stereo not drawn) [Compound 142, N-(2-(3,5-dimethoxyphenyl)-2-hydroxyethyl)-2-methyl-2-((3-(trifluoromethyl)phenyl)sulfonyl)propanamide], the figure is 440 nM; as for `CC(C)S(=O)(=O)c1cccnc1C(=O)NCCC(C)(C)S(=O)(=O)c1cccc(C(F)(F)F)c1` [Compound 211, 3-(isopropylsulfonyl)-N-(3-methyl-3-((3-(trifluoromethyl)phenyl)sulfonyl)butyl)picolinamide], 1100 nM.
The same measure, in the same setting: with `CC(C)(CCNC(=O)[C@@H]1CCCN1)S(=O)(=O)c1cccc(C(F)(F)F)c1` [Compound 219, (S)-N-(3-methyl-3-((3-(trifluoromethyl)phenyl)sulfonyl)butyl)pyrrolidine-2-carboxamide] the figure was 3230 nM.
On to `O=C(NCc1ccc(S(=O)(=O)c2cccc(C(F)(F)F)c2)cn1)c1ccnn1CC(F)(F)F` [Compound 100, 1-(2,2,2-trifluoroethyl)-N-((5-((3-(trifluoromethyl)phenyl)sulfonyl)pyridin-2-yl)methyl)-1H-pyrazole-5-carboxamide], for which the IC50 at CaV2.2 (setting [1]) came out at 1320 nM.
`CC(C)C[C@H](CN)CC(=O)NCCC(C)(C)S(=O)(=O)c1cccc(C(F)(F)F)c1` [Compound 224, (S)-3-(aminomethyl)-5-methyl-N-(3-methyl-3-((3-(trifluoromethyl)phenyl)sulfonyl)butyl)hexanamide] yielded an IC50 on CaV2.2 (FLIPR data CaV2.2 (nM), Table 5) of 470 nM.
For the compound `CC1(C(=O)NCCC(C)(C)S(=O)(=O)c2cccc(C(F)(F)F)c2)CCCCN1` (stereo not drawn) [Compound 222, 2-methyl-N-(3-methyl-3-((3-(trifluoromethyl)phenyl)sulfonyl)butyl)piperidine-2-carboxamide], the IC50 at CaV2.2 (setting [2]) turned out to be 3770 nM.
For `CC(C)(CCNC(=O)[C@@H]1CCCCN1)S(=O)(=O)c1cccc(C(F)(F)F)c1` [Compound 196, (S)-N-(3-methyl-3-((3-(trifluoromethyl)phenyl)sulfonyl)butyl)piperidine-2-carboxamide], the IC50 on CaV2.2 (setting [2]) worked out at 3510 nM.
Consider `O=C(NCc1ccccc1S(=O)(=O)c1cccc(C(F)(F)F)c1)c1ccnc(C(F)(F)F)c1` [Compound 50, 2-(trifluoromethyl)-N-(2-((3-(trifluoromethyl)phenyl)sulfonyl)benzyl)isonicotinamide], for which the IC50 at CaV2.2 (setting [1]) stood at 1210 nM.
